pKi: −log10 of the molar value.
Target: T1, human V1a receptor (Homo sapiens, UniProt P37288)
T1 construct: expressed in transfected cells; host or cells: HEK293 cells, transiently transfected; membrane preparation
Experiment: human V1a receptor binding, 3H-Vasopressin SPA on membranes of transfected HEK293 cells
Conditions: displacement of 4 nM 3H-Vasopressin; HEK293 cell membranes; 1 h at room temperature; Ki from IC50 by the Cheng-Prussoff equation
Protocol: The human V1a receptor was cloned by RT-PCR from total human liver RNA. The coding sequence was subcloned in an expression vector after sequencing to confirm the identity of the amplified sequence. […] Cell membranes were prepared from HEK293 cells transiently transfected with the expression vector and grown in 20 liter fermenters with the following protocol.
50 g of cells are resuspended in 30 ml freshly prepared ice cold Lysis buffer (50 mM HEPES, 1 mM EDTA, 10 mM MgCl2 adjusted to pH=7.4+ complete cocktail of protease inhibitor (Roche Diagnostics)). Homogenized with Polytron for 1 min and sonicated on ice for 2×2 minutes at 80% intensity (Vibracell sonicator). The preparation is centrifuged 20 min at 500 g at 4° C., the pellet is discarded, and the supernatant centrifuged 1 hour at 43,000 g at 4° C. (19,000 rpm). The pellet is resuspended in 12.5 ml Lysis buffer+12.5 ml Sucrose 20% and homogenized using a Polytron for 1-2 min. The protein concentration is determined by the Bradford method, and aliquots are stored at −80° C. until use. For binding studies 60 mg Yttrium silicate SPA beads (Amersham) are mixed with an aliquot of membrane in binding buffer (50 mM Tris, 120 mM NaCl, 5 mM, KCl, 2 mM CaCl2, 10 mM MgCl2) for 15 minutes with mixing. 50 ul of bead/membrane mixture is then added to each well of a 96 well plate, followed by 50 ul of 4 nM 3H-Vasopressin (American Radiolabeled Chemicals). For total binding measurement, 100 ul of binding buffer are added to the respective wells, for non-specific binding 100 ul of […] cold vasopressin and for compound testing 100 ul of a serial dilution of each compound in 2% DMSO. The plate is incubated 1 h at room temperature, centrifuged 1 min at 1000 g and counted on a Packard Top-Count. Non-specific binding counts are subtracted from each well, and data is normalized to the maximum specific binding set at 100%. To calculate an IC 50, the curve is fitted using a non-linear regression model (XLfit), and the Ki is calculated using the Cheng-Prussoff equation.

T1 sequence (P37288 whole entry): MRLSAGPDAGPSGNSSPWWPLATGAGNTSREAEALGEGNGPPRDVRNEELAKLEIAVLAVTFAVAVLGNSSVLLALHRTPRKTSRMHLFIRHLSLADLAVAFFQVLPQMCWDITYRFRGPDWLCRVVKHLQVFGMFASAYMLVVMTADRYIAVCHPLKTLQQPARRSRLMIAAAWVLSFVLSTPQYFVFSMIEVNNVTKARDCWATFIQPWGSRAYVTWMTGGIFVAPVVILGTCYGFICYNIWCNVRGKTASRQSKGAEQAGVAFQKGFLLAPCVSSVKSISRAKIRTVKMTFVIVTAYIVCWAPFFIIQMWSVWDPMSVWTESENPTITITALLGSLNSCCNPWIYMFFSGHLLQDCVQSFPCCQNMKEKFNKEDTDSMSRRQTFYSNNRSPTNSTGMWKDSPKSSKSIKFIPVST

SMILES | pKi
O=C(Cn1cc(C(=O)N2CCC(n3c(=O)[nH]c4ccccc43)CC2)c2ccc(Cl)cc21)c1ccccc1F [Example 38, 1-(1-{6-Chloro-1-[2-(2-fluoro-phenyl)-2-oxo-ethyl]-1H-indole-3-carbonyl}-piperidin-4-yl)-1,3-dihydro-benzoimidazol-2-one] | 8.70
O=C(Cn1cc(C(=O)N2CCC(n3c(=O)[nH]c4ccccc43)CC2)c2ccc(Cl)cc21)c1ccc(F)c(F)c1 [Example 39, 1-(1-{6-Chloro-1-[2-(3,4-difluoro-phenyl)-2-oxo-ethyl]-1H-indole-3-carbonyl}-piperidin-4-yl)-1,3-dihydro-benzoimidazol-2-one] | 7.74
O=C(Cn1cc(C(=O)N2CCC(n3c(=O)n(CC(=O)N4CCCCC4)c4ccccc43)CC2)c2ccc(Cl)cc21)N1CCCCC1 [Example 42, 1-{1-[6-Chloro-1-(2-oxo-2-piperidin-1-yl-ethyl)-1H-indole-3-carbonyl]-piperidin-4-yl}-3-(2-oxo-2-piperidin-1-yl-ethyl)-1,3-dihydro-benzoimidazol-2-one] | 7.74
O=C(Cn1cc(C(=O)N2CCC(n3c(=O)[nH]c4ccccc43)CC2)c2ccc(Cl)cc21)c1cc(F)cc(F)c1 [Example 44, 1-(1-{6-Chloro-1-[2-(3,5-difluoro-phenyl)-2-oxo-ethyl]-1H-indole-3-carbonyl}-piperidin-4-yl)-1,3-dihydro-benzoimidazol-2-one] | 7.77
Cc1oc(-c2ccccc2)nc1C(=O)Cn1cc(C(=O)N2CCC(n3c(=O)[nH]c4ccccc43)CC2)c2ccc(Cl)cc21 [Example 45, 1-(1-{6-Chloro-1-[2-(5-methyl-2-phenyl-oxazol-4-yl)-2-oxo-ethyl]-1H-indole-3-carbonyl}-piperidin-4-yl)-1,3-dihydro-benzoimidazol-2-one] | 7.37
CN(C)C(=O)Cn1cc(C(=O)N2CCC(n3c(=O)[nH]c4ccccc43)CC2)c2ccc(Cl)cc21 [Example 46, 2-{6-Chloro-3-[4-(2-oxo-2,3-dihydro-benzoimidazol-1-yl)-piperidine-1-carbonyl]-indol-1-yl}-N,N-dimethyl-acetamide] | 8.70
Cc1cc2c(C(=O)N3CCC(n4c(=O)[nH]c5ccccc54)CC3)cn(CC(=O)N(C)C)c2cc1Cl [Example 47, 2-{6-Chloro-5-methyl-3-[4-(2-oxo-2,3-dihydro-benzoimidazol-1-yl)-piperidine-1-carbonyl]-indol-1-yl}-N,N-dimethyl-acetamide] | 8.30
CN(C)C(=O)Cn1cc(C(=O)N2CCC(n3c(=O)[nH]c4ccccc43)CC2)c2cc(Cl)c(Cl)cc21 [Example 48, 2-{5,6-Dichloro-3-[4-(2-oxo-2,3-dihydro-benzoimidazol-1-yl)-piperidine-1-carbonyl]-indol-1-yl}-N,N-dimethyl-acetamide] | 8.52

The next lines start with the values.

pKi | SMILES
7.89 | O=C(c1cn(-c2cc(F)cc(F)c2)c2cc(Cl)ccc12)N1CCC(n2c(=O)[nH]c3ccccc32)CC1 [Example 40, 1-{1-[6-Chloro-1-(3,5-difluoro-phenyl)-1H-indole-3-carbonyl]-piperidin-4-yl}-1,3-dihydro-benzoimidazol-2-one]
7.85 | O=C(c1cn(C(=O)N2CCCCC2)c2cc(Cl)ccc12)N1CCC(n2c(=O)[nH]c3ccccc32)CC1 [Example 41, 1-{1-[6-Chloro-1-(piperidine-1-carbonyl)-1H-indole-3-carbonyl]-piperidin-4-yl}-1,3-dihydro-benzoimidazol-2-one]
7.21 | CCN(CC)C(=O)Cn1cc(C(=O)N2CCC(n3c(=O)n(CC(=O)N(CC)CC)c4ccccc43)CC2)c2ccc(Cl)cc21 [Example 43, 2-{6-Chloro-3-[4-(3-diethylcarbamoylmethyl-2-oxo-2,3-dihydro-benzoimidazol-1-yl)-piperidine-1-carbonyl]-indol-1-yl}-N,N-diethyl-acetamide]

From patent publication US7803815B2, “Indol-3-yl-corbonyl-piperidin-benzoimidazol derivatives” (Hoffmann-La Roche Inc., priority 2005, dated 2010)
